Laboratory results reported in a melting point compilation (Tetko et al.; mined from patent text by program, amines drawn as free bases though some values may be those of a salt).

melting point | SMILES
> 230 °C | COc1cc(-n2c(=O)cc(C(F)(F)F)n(N)c2=O)ccc1C#N
135 to 137 °C | COc1ccc(C)cc1NC(=O)Nc1ccc(C2=CCN(C(=O)Nc3ccc(OCC(O)CO)cc3C(F)(F)F)CC2)cc1 (configuration not stated)
74 to 77 °C | CCc1cccc(C)c1N1C(=O)CCN(CC)C1=S
165 to 168 °C | O=C(c1ccc(Br)cc1Cl)c1cccc2c1Nc1ncccc1CN2
203 to 204 °C | Cc1nccc(C(N)=O)c1[N+](=O)[O-]
180 to 181 °C | COc1ccc(-c2c(C(C)=O)c(Cn3cncn3)nc3cc(OC)c(OC)cc23)cc1OC
108 to 110 °C | O=C(CCc1ccccc1)N[C@H](Cc1ccc(Oc2ccccc2)cc1)[C@@H](O)c1ccc(F)cc1 (racemic)
95 to 97 °C | CC(C(=O)c1ccc(O)cc1)N1CCC(O)(c2ccccc2)CC1 (configuration not stated)
188 to 189 °C | O=C(NCc1ccccn1)Nc1cc(N2CC(c3cccc(F)c3)CC2=O)ccn1 (configuration not stated)
48 to 49 °C | Cc1cc(OCc2ccccc2)c(C)cc1C=O
194 to 195 °C | CN(Cc1cc(C(F)(F)F)cc(C(F)(F)F)c1)C1CCN(c2ccc(OC[C@@]3(C)Cn4cc([N+](=O)[O-])nc4O3)cc2)CC1
185 °C | O=C1Nc2cc(Cl)ccc2N[C@H]1Cc1ccccc1
87 to 93 °C | CC(O)(c1cccnc1)C1CCN(C[C@@]23C[C@@H](c4ccccc42)c2ccc(Cl)cc23)CC1 (single isomer, unassigned)
227 to 229 °C | CC1=C(c2nc(C)no2)C(c2cccc(Cl)c2Cl)C(c2nc(C)no2)=C(C)N1
158 to 161 °C | CC(C)(C)c1cc(C(C)(C)C)c(O)c(S(=O)(=O)Nc2ccc([N+](=O)[O-])cc2Cl)c1
179 to 181 °C | Cc1cc(-c2ccccc2)n2nc(Cl)nc2n1
71 to 73 °C | COc1ccc(C(=O)c2ccon2)cc1
226 to 228 °C | O=C(OCP(=O)(C1CCCCC1)C1CCCCC1)c1ccc(C(=O)OCP(=O)(C2CCCCC2)C2CCCCC2)cc1
94 to 96 °C | CCCN1CCC(c2c(O)cc(O)c3c(=O)cc(-c4ccccc4Cl)oc23)C1CO (configuration not stated)
> 350 °C | O=C(O)Cc1cc2c([N+](=O)[O-])c(O)c(O)cc2oc1=O
252 °C | O=c1[nH]cc(-c2cccc(Cl)c2)c2ncccc12
48 to 49.5 °C | O=S(=O)(CCCCl)NC1CC1
218 to 220 °C | O=c1cnc2c(NC(CO)CO)nc(SCc3cccc(Cl)c3F)nc2[nH]1
58 to 59 °C | CCCCCCCCC(=S)n1c(-c2cscn2)nc2ccccc21

melting point | SMILES
63.5 °C | Nc1ccc(OC(F)(F)F)cc1
128 to 130 °C | CC(C)(NCCCn1cnc(CO)c1)c1ccc(-c2ccccc2)cc1
214 to 215 °C | Cc1noc(NC(=O)N2CCN(c3nccc(-c4ccc(F)c(F)c4)n3)CC2)c1C
110 °C | CCCCN(CCCC)CCCOc1ccc(S(=O)(=O)c2ncsc2-c2ccccc2)cc1
119 to 123 °C | O=[N+]([O-])c1ccc(C(O)c2ccccn2)c(OCC(F)(F)F)c1 (configuration not stated)
182 to 184 °C | CC1=CC(C)(C)Nc2ccc(O)cc21
179 °C | O=c1ncc(Cl)cn1CSc1ccc(F)cc1
104 to 107 °C | CC1=C(C(=O)OC2CN(C(c3ccccc3)c3ccccc3)C2)C(c2cccc([N+](=O)[O-])c2)C(C(=O)OC(C)C)=C(N)N1 (configuration not stated)
118 to 119 °C | CCOC(=O)c1c(C(F)(F)F)[nH]cc(-c2cc(OC(C)C)c(Cl)cc2F)c1=O
189 °C | OC1CSC(Oc2cc(-c3ccncc3)ccc2Cl)C(O)C1O (configuration not stated)
160 to 180 °C | OCCCc1ccc2c(c1)Cc1cc(CCCO)ccc1-2
206 °C | CCC1Cc2cc(OCC(=O)O)c(C)c(C)c2C1=O (configuration not stated)
79 to 81 °C | COc1ccc(/C=C/C(=O)c2ccccc2C(=O)O)cc1-c1cccs1
53 to 55 °C | C=CCOC(=O)CC(=O)CCN1C(=O)c2ccccc2C1=O
178 to 180 °C | CS(=O)(=O)c1ccc(-c2cnn(-c3ccc(F)c(F)c3)c(=O)c2Oc2ccc(F)cc2)cc1
252 to 253 °C | CCn1cc(C(=O)NC2Cc3ccccc3C2)c(=O)c2cnc(N3CCCC3)nc21
98 to 99 °C | CCOCC(=NNc1ccc(C(F)(F)F)cc1)C(=O)NCc1ccc(Cl)nc1
96 to 98 °C | CCCCOCc1cc(-n2nc(C(N)=O)nc2-c2ccccc2)ccc1Cl
115 to 116 °C | CC1(C)CC(=O)c2c(O)cc(O)cc2C1
206 to 208 °C | COC(=O)c1ccc2c(=O)n(CC(C)C)c(CNC(=O)OC(C)(C)C)c(-c3cccc(F)c3)c2c1
28 °C | O=C(CCc1cc(C2CCCCC2)c(O)c(C2CCCCC2)c1)NCCCCCCNC(=O)CCc1cc(C2CCCCC2)c(O)c(C2CCCCC2)c1
155 to 157 °C | CCCn1nc2c(N)nc3ccccc3c2c1CCCCS(C)(=O)=O
134 to 135 °C | COC(=O)C12C3C4C1(C(=O)OC)C1(Cl)C2C3(C(=O)OC)C41C(=O)OC (configuration not stated)
167 to 168 °C | O=C(O)CCC(=O)c1cc2c(s1)CCc1ccccc1C2=O

melting point | SMILES
155 to 160 °C | CC1CC2C3CCC4=CC(=O)C=CC4(C)C3=CCC2(C)C1C(=O)CN1CCN(c2cc(NCC(C)(C)C)nc(NC(C)(C)C)n2)CC1 (configuration not stated)
160 to 161 °C | O=c1cc(CO)oc(CO)c1O
266 °C | CS(=O)c1cc(CCC(=O)O)nc(-c2nc(=O)c3ccccc3s2)c1 (configuration not stated)
64 to 66 °C | CC(C)OC(=O)C(C(=O)O)c1ccccc1 (configuration not stated)
95 to 100 °C | CCCCC1=NC2(CCCC2)C(=O)N1Cc1ccc(-c2ccccc2S(=O)(=O)Nc2onc(C)c2C)c(CN2CCCC2=O)c1
43 to 48 °C | CC(c1ccccc1)c1cccnn1 (configuration not stated)
255 to 257 °C | CCOC(=O)c1c(N=Cc2ccc([N+](=O)[O-])s2)sc(N=Cc2ccc([N+](=O)[O-])s2)c1C(=O)OCC
233 to 235 °C | CCOC(=O)C(=C1SC(=S)N(CC(=O)O)C1=O)c1csc(NC(=S)NC(=O)c2ccccc2)n1
99 to 100 °C | OCc1cccc2c1CCc1ccsc1-2
137 °C | CC(C)(C)c1cc(-c2csc(CN3CCOCC3)n2)cc(C(C)(C)C)c1O
164 to 167 °C | CC(=O)Nc1cccc2c1S(=O)(=O)N=C2C1=C(O)C(C(C)(C)C)N(Cc2ccc(F)cc2)C1=O (configuration not stated)
196 to 197 °C | COc1ccc(-n2c(C)ccc2-c2ccc(S(N)(=O)=O)cc2)cc1
76 to 80 °C | CCCCc1oc2ccc([N+](=O)[O-])cc2c1C(=O)c1ccc(OCCCO)cc1
117 to 119 °C | CC(=O)NC1Cc2ccc(Cl)cc2C1 (configuration not stated)
124 to 125 °C | CCOC(=O)N=C1N(c2c(C)cccc2C)CC(C)N1c1c(C)cccc1C (configuration not stated)
204 to 208 °C | CC1(C)Oc2ccc(C#N)cc2[C@@H](NC(=O)Nc2cccc(-c3nnn[nH]3)c2)[C@@H]1O
111 to 113 °C | CCCC(=O)c1ccc(OCCCC(=O)O)c(Cl)c1Cl
135 to 137 °C | O=c1oc2ccccc2n1CCN1CCc2c([nH]c3ccccc23)C1
138 to 142 °C | O=C(O)c1cn(-c2ccc(Br)cc2)c(-c2ccc(Cl)cc2Cl)n1
247 to 248 °C | CCNCC1CCN(c2c(F)c(F)c3c(=O)c(C(=O)O)cn(C4CC4)c3c2F)C1 (configuration not stated)
65 °C | CCCCCCCCOc1ccc(OCc2ccc(C(=O)OC3CCC(CCC)(CCC)OC3=O)cc2)cc1 (configuration not stated)
122 to 126 °C | N#Cc1ccc(Oc2ccc(Cl)c(Cl)c2)c(C=O)c1
211 to 212 °C | CSc1nc(-c2ccc(S(C)(=O)=O)cc2)n(-c2ccc(C(C)C)cc2)c(=O)c1C#N
180 to 182 °C | O=C(O)c1cc(S(=O)(=O)N2CC=CCC2)ccc1Cl

melting point | SMILES
176 to 178 °C | CC(C(N)=O)c1ccc2c(c1)C(=O)Cc1ccc(F)cc1S2 (configuration not stated)
> 270 °C | COc1cc(N)c(Cl)cc1Cn1nc(-c2ccc(C(F)(F)F)cc2)[nH]c1=O
> 200 °C | COc1cccc(/C=C/C(=O)N2CC(CCl)c3c2cc(N)c2ccccc32)c1 (configuration not stated)
147 to 149 °C | CC(=O)c1cc(N(C)C)ccc1NC(=O)c1cccc(OCc2ccccc2)c1
74 to 75 °C | CN1CCN(Cc2ccccc2Cl)C(C(=O)NCCCl)C1 (configuration not stated)
70.7 to 71.3 °C | CCOC(=O)/C=C/c1ccc(OCCOC)cc1Oc1ncc(Cl)cc1Cl
105 °C | CC(C)(C)OC(=O)CCS(=O)(=O)c1ccc(Br)cc1
63 to 64 °C | CC(C)(C)[Si](C)(C)OCCn1cc([N+](=O)[O-])cn1
148 to 150 °C | Cc1c(OCCCCCCC(=O)N(CCO)C2CCCCC2)ccc2c1CN1CC(=O)NC1=N2
108 to 112 °C | CC(C)[C@H](CC1C(=O)OC(C)(C)OC1=O)NC(=O)OC(C)(C)C
212 to 214 °C | COc1ccc2c(c1)cc(-c1nc(C)no1)n2-c1ccc(CNC(=O)C2(NC(=O)OC(C)(C)C)CC2)cc1
205 to 207 °C | COC(=O)c1ccc(OC)c2oc3ccnc(O)c3c12
131 to 132 °C | CC(=NO)c1ccc(OCc2ccccc2)c(CCCc2ccc(C(=O)NCCO)cc2)c1
106 to 108 °C | CS(=O)(=O)ON=C(Cl)c1ccccc1
135 to 138 °C | CCOC(=O)CNc1ccc(NS(C)(=O)=O)cc1
90 °C | CCCCCOc1ccc2c(c1)C=C(CNC(=O)CCC)CO2
191 to 193 °C | CCCCCc1c(-c2ccc(OC(F)F)c(OC3CC3)c2)[nH]c2cn[nH]c(=O)c12
265 °C | O=C(Nc1cc(C(=O)NCCc2ccccc2)ccc1O)C(=O)Nc1cc(Cl)cc(Cl)c1O
179 to 180 °C | CCn1ncc2c1ncc1c(Cl)nc3cc(C)nn3c12
231 to 232 °C | COc1ccc(N)c(OC)c1-c1ccc(C[C@H](NC(=O)c2c(Cl)cccc2Cl)C(=O)O)cc1
215 to 216 °C | Cc1nc2nc(S(=O)(=O)Nc3c(Cl)cccc3Cl)nn2cc1Br

SMILES | melting point
COc1ccc2cc(CN(C)C(=O)c3cn(C)c4ccccc34)ccc2c1Br | 168 to 169 °C
CCN1CCC2(c3cccc(O)c3)Cc3[nH]c(C(=O)N(CC)CC)c(C)c3CC2C1 (configuration not stated) | 221 to 223 °C
CCOC(=O)c1ncn2c1CN(C)C(=O)c1cc([N+](=O)[O-])ccc1-2 | 197 to 199 °C
CCCCCC(=O)NC(=O)N1CC1C#N (configuration not stated) | 143 to 144 °C
